Measured values: US8530667B2, “Herbicides” (Syngenta Limited, priority 2007, dated 2013)

What was measured:
Type in all cases: in vivo
Avena fatua (AVEFA) [1] = test: Example A pre-emergence herbicidal activity, glasshouse pot test; details: evaluated 19 or 20 days later, read-out: Pre-Emergence Activity AVEFA (100=total damage to plant; 0=no damage to plant); for pest or weed control at 500 g/ha: Rate 500 g/ha; for pest or weed control at 250 g/ha: Rate 250 g/ha
Method: (§1) Seeds of a variety of test species were sown in standard soil in pots. After cultivation for one day (pre-emergence) or after 10 days cultivation (post-emergence) under controlled conditions in a glasshouse, the plants were sprayed with an aqueous spray solution derived from the formulation of the technical active ingredient in 0.6 ml acetone and 45 ml formulation solution containing 10.6% Emulsogen EL (Registry number 61791-12-6), 42.2% N-methylpyrrolidone, 42.2% dipropylene glycol monomethyl ether (Registry number 34590-94-8) and 0.2% X-77 (Registry number 11097-66-8). The test plants were then grown in a greenhouse under optimum conditions until, 14 or 15 days later for post-emergence and 19 or 20 days for pre-emergence, the test was evaluated (100=total damage to plant; 0=no damage to plant). Alopecurus myosuroides (ALOMY), Avena fatua (AVEFA), Lolium perenne (LOLPE), Setaria faberi (SETFA), Digitaria sanguinalis (DIGSA), Echinochloa crus-galli (ECHCG)

Lolium perenne (LOLPE) [2] = test: as above; details: evaluated 19 or 20 days later, read-out: Pre-Emergence Activity LOLPE (100=total damage to plant; 0=no damage to plant); for pest or weed control at 500 g/ha: Rate 500 g/ha; for pest or weed control at 250 g/ha: Rate 250 g/ha
Method: as §1

[3] = tested on: Alopecurus myosuroides (ALOMY); test: as above; details: evaluated 19 or 20 days later, read-out: Pre-Emergence Activity ALOMY (100=total damage to plant; 0=no damage to plant); for pest or weed control at 500 g/ha: Rate 500 g/ha; for pest or weed control at 250 g/ha: Rate 250 g/ha
Method: as §1

[4] = tested on: Digitaria sanguinalis (DIGSA); test: as above; details: evaluated 19 or 20 days later, read-out: Pre-Emergence Activity DIGSA (100=total damage to plant; 0=no damage to plant); for pest or weed control at 500 g/ha: Rate 500 g/ha; for pest or weed control at 250 g/ha: Rate 250 g/ha
Method: as §1

[5] = tested on: Echinochloa crus-galli (ECHCG); test: as above; details: evaluated 19 or 20 days later, read-out: Pre-Emergence Activity ECHCG (100=total damage to plant; 0=no damage to plant); for pest or weed control at 500 g/ha: Rate 500 g/ha; for pest or weed control at 250 g/ha: Rate 250 g/ha
Method: as §1

Setaria faberi (SETFA) [6] = test: as above; details: evaluated 19 or 20 days later, read-out: Pre-Emergence Activity SETFA (100=total damage to plant; 0=no damage to plant); for pest or weed control at 500 g/ha: Rate 500 g/ha; for pest or weed control at 250 g/ha: Rate 250 g/ha
Method: as §1

Avena fatua (AVEFA) [7] = test: Example A post-emergence herbicidal activity, glasshouse pot test; details: Rate 125 g/ha, evaluated 14 or 15 days later, read-out: Post-Emergence Activity AVEFA (100=total damage to plant; 0=no damage to plant)
Method: as §1

Lolium perenne (LOLPE) [8] = test: as above; details: Rate 125 g/ha, evaluated 14 or 15 days later, read-out: Post-Emergence Activity LOLPE (100=total damage to plant; 0=no damage to plant)
Method: as §1

[9] = tested on: Alopecurus myosuroides (ALOMY); test: as above; details: Rate 125 g/ha, evaluated 14 or 15 days later, read-out: Post-Emergence Activity ALOMY (100=total damage to plant; 0=no damage to plant)
Method: as §1

[10] = tested on: Digitaria sanguinalis (DIGSA); test: as above; details: Rate 125 g/ha, evaluated 14 or 15 days later, read-out: Post-Emergence Activity DIGSA (100=total damage to plant; 0=no damage to plant)
Method: as §1

[11] = tested on: Echinochloa crus-galli (ECHCG); test: as above; details: Rate 125 g/ha, evaluated 14 or 15 days later, read-out: Post-Emergence Activity ECHCG (100=total damage to plant; 0=no damage to plant)
Method: as §1

Setaria faberi (SETFA) [12] = test: as above; details: Rate 125 g/ha, evaluated 14 or 15 days later, read-out: Post-Emergence Activity SETFA (100=total damage to plant; 0=no damage to plant)
Method: as §1

Avena fatua (AVEFA) [13] = test: Example B post-emergence herbicidal activity, glasshouse pot test; details: 312 h, rate 1000 g/ha, evaluated after 13 days, read-out: Post-emergence activity AVEFA (100=total damage to plant; 0=no damage to plant)
How it was run: (§2)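 Seeds sown in standard soil in pots were sprayed 1 day (pre-emergence) or 8 days (post-emergence) after sowing with the active ingredient in acetone/water (50:50) plus 0.5% Tween 20. Plants were kept in a glasshouse at 24/16° C day/night, 14 h light, 65% humidity. Damage was scored after 13 days (0–100).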

[14] = tested on: Amaranthus retoflexus (AMARE); test: as above; details: Amaranthus retroflexus, 312 h, rate 1000 g/ha, evaluated after 13 days, read-out: Post-emergence activity AMARE (100=total damage to plant; 0=no damage to plant)
How it was run: as §2

[15] = tested on: Alopecurus myosuroides (ALOMY); test: as above; details: 312 h, rate 1000 g/ha, evaluated after 13 days, read-out: Post-emergence activity ALOMY (100=total damage to plant; 0=no damage to plant)
How it was run: as §2

[16] = tested on: Echinochloa crus-galli (ECHCG); test: as above; details: 312 h, rate 1000 g/ha, evaluated after 13 days, read-out: Post-emergence activity ECHCG (100=total damage to plant; 0=no damage to plant)
How it was run: as §2

Setaria faberi (SETFA) [17] = test: as above; details: 312 h, rate 1000 g/ha, evaluated after 13 days, read-out: Post-emergence activity SETFA (100=total damage to plant; 0=no damage to plant)
How it was run: as §2

SMILES | pest or weed control at 500 g/ha (Avena fatua (AVEFA) [1]) [%] | pest or weed control at 500 g/ha (Lolium perenne (LOLPE) [2]) [%] | pest or weed control at 500 g/ha [3] [%] | pest or weed control at 500 g/ha [4] [%] | pest or weed control at 500 g/ha [5] [%] | pest or weed control at 500 g/ha (Setaria faberi (SETFA) [6]) [%] | pest or weed control at 125 g/ha (Avena fatua (AVEFA) [7]) [%] | pest or weed control at 125 g/ha (Lolium perenne (LOLPE) [8]) [%] | pest or weed control at 125 g/ha [9] [%] | pest or weed control at 125 g/ha [10] [%] | pest or weed control at 125 g/ha [11] [%] | pest or weed control at 125 g/ha (Setaria faberi (SETFA) [12]) [%] | pest or weed control at 250 g/ha (Avena fatua (AVEFA) [1]) [%] | pest or weed control at 250 g/ha (Lolium perenne (LOLPE) [2]) [%] | pest or weed control at 250 g/ha [3] [%] | pest or weed control at 250 g/ha [4] [%] | pest or weed control at 250 g/ha [5] [%] | pest or weed control at 250 g/ha (Setaria faberi (SETFA) [6]) [%] | also measured
Cc1sc(-c2ccccn2)cc1C1C(=O)[C@@H]2[C@H](C1=O)[C@H]1CC[C@@H]2O1 (some centres unmarked) [Compound T6] | 60 | 0 | 0 | 0 | 0 | 0 | 10 | 10 | 10 | 20 | 30 | 40 | – | – | – | – | – | – | –
COc1ccc(-c2nc(C3C(=O)[C@@H]4[C@H](C3=O)[C@H]3CC[C@@H]4O3)c(C)s2)cc1 (some centres unmarked) [Compound T21] | – | – | – | – | – | – | 20 | 40 | 50 | 80 | 100 | 80 | 70 | 90 | 90 | 100 | 100 | 100 | pest or weed control at 1000 g/ha (Avena fatua (AVEFA) [13]): 100%; pest or weed control at 1000 g/ha [14]: 0%; pest or weed control at 1000 g/ha [15]: 100%; pest or weed control at 1000 g/ha [16]: 100%; pest or weed control at 1000 g/ha (Setaria faberi (SETFA) [17]): 100%
Cc1scc(Br)c1C1C(=O)[C@@H]2[C@H](C1=O)[C@H]1CC[C@@H]2O1 (some centres unmarked) [Compound T4] | 70 | 70 | 70 | 30 | 70 | 70 | 30 | 40 | 10 | 60 | 80 | 40 | – | – | – | – | – | – | –
CCc1sc(-c2ccc(Cl)cc2)nc1C1C(=O)[C@H]2[C@@H]3CC[C@@](C)(O3)[C@H]2C1=O (mixture of isomers) [Compound T25, 4-[2-(4-chloro-phenyl)-5-ethyl-thiazol-4-yl]-1-methyl-10-oxa-tricyclo[5.2.1.0*2,6*]decane-3,5-dione] | – | – | – | – | – | – | 100 | 50 | 100 | 100 | 100 | 90 | 90 | 100 | 90 | 100 | 100 | 100 | –
Cc1sc(-c2ccc(Cl)cc2)nc1C1C(=O)[C@@H]2[C@H](C1=O)[C@H]1CC[C@@H]2O1 (some centres unmarked) [Compound T22] | – | – | – | – | – | – | 70 | 20 | 70 | 100 | 100 | 60 | 100 | 100 | 100 | 100 | 100 | 100 | –
